In patent US20110281788A1, “ANTI FUNGAL THERAPY” (priority 2008, published 2011):
Where two headings read alike, the source gives them in different places. Where a SMILES comes first, the peptide text is derived from it. Where no end group is shown, it is not given here.

Tests used:
[1] = tested on: yeast (Saccharomyces cerevisiae); assay: Disc diffusion assay of yeast growth inhibition (FIG. 1 A-G); assay type: cell-based
Source text: The data shown in FIG. 1(h)-(n) are for the highly resistant yeast Candida glabrata which is difficult to treat due to its high intrinsic resistance to traditional antifungals. The data shown in FIGS. 1(o)-(u) are for Candida albicans. As above, the panels (h) through (u) show the effect of an echinocandin compound, an antimicrobial peptide and a combination of the two on Candida glabrata and Candida albicans.
Sterile filter paper discs (6 mm, Aa, Whatman) were impregnated with either, peptides or caspofungin alone, or peptides and caspofungin together, and left in sterile Petri dishes overnight at room temperature to dry. Following this, 100 μl of mid-exponential phase culture of yeast was spread onto the surface of MEB, pH 7 plus 2% agarose plates and left to dry for 1 h at room temperature. MEB plates were made with 2% agarose rather than agar because the agar inhibited the action of the antimicrobial peptides. Discs containing the various antifungal combinations were then applied to the surface and the plates were incubated at 30° C. for 48 h. Images showing the zones of inhibition were obtained by scanning the plates using an ImageScanner (GE Healthcare UK Ltd, Chalfont St Giles, UK) with ImageMaster Labscan v 3.00 software (GE Healthcare UK Ltd). Images were annotated using Microsoft PhotoDraw.

yeast = assay: Liquid culture assay of yeast growth inhibition, OD600 growth curves (FIG. 4); assay type: cell-based; conditions: sub-inhibitory peptide combined with sub-inhibitory caspofungin
Method: The lines represent: Blue—untreated yeast culture alone; Yellow—yeast culture in the presence of a subinhibitory concentration of caspofungin alone; Green—yeast culture in the presence of a subinhibitory concentration of an antimicrobial peptide alone; Red—culture in the presence of a combination of sub-inhibitory caspofungin with sub-inhibitory peptide.
Sterile MEB, pH 7 was added (300 μl) to each well of 48-well microtitre plate (Greiner Bio-one Ltd, Stonehouse, UK) followed by appropriate concentrations of each peptide alone, caspofungin alone and various combinations of peptides with caspofungin. The wells were then inoculated with mid-exponential phase yeast cultures to give starting cell numbers of 1000 cells per well. […] OD600 readings were taken every 15 minutes. Data was analysed in Microsoft Excel.

[2] = tested on: C. glabrata (Hospital isolate); assay type: cell-based, Candida glabrata; conditions: RPMI-1640, <0.5 synergy, >4 antagonism, 0.5 to 4 no interaction
Method: (§1) 96-well micro-titre plate (Greiner Bio-one Ltd, Stonehouse, UK) wells were filled with 150 μl MEB or RPMI-1640, 2% MOPS (Sigma), pH 7 and concentrations of either peptides or caspofungin alone, or combinations of peptides with caspofungin. Approximately 500 cells from mid-exponential phase cultures of the yeast strains described above were then added to each well. Plates were incubated at 30° C. for 48 hours and scanned as described above.
(§2) Fractional inhibitory concentration (FIC) indices for combinations of caspofungin or anidulafungin with various antimicrobial peptides calculated from chequerboard assays of visible growth inhibition of three Candida strains tested in RPMI-1640. IC values highlighted in grey indicate combinations where no synergy was observed. Fractional Inhibitory Concentration (FIC)=[…] where <0.5 synergy, >4 antagonism and 0.5 to 4 no interaction. (Odds, F. C. (2003) Synergy, antagonism, and what the chequerboard puts between them. J. Antimic. Chemother.) N/A—not tested.

C. albicans SC5314 = assay type: cell-based, Candida albicans; conditions: RPMI-1640, <0.5 synergy, >4 antagonism, 0.5 to 4 no interaction
Method: as §1, §2

[3] = tested on: C. albicans (Hospital isolate); assay type: cell-based, Candida albicans; conditions: RPMI-1640, <0.5 synergy, >4 antagonism, 0.5 to 4 no interaction
Method: as §1, §2

[4] = substance alone, at the concentrations displayed
[5] = peptide applied together with caspofungin
[6] = peptide combined with anidulafungin
[7] = peptide combined with caspofungin

| Compound | zones of clearing around impregnated filter paper discs on agar plates [1, 4] | yeast growth (OD600) over 24 h in microtitre plate wells (yeast) | zones of clearing around impregnated filter paper discs on agar plates [1, 5] | Fractional inhibitory concentration (FIC) index [2, 6] | Fractional inhibitory concentration (FIC) index [2, 7] | Fractional inhibitory concentration (FIC) index (C. albicans SC5314; [6]) | Fractional inhibitory concentration (FIC) index (C. albicans SC5314; [7]) | Fractional inhibitory concentration (FIC) index [3, 6] | Fractional inhibitory concentration (FIC) index [3, 7] |
| --- | --- | --- | --- | --- | --- | --- | --- | --- | --- |
| CC[C@H](C)C[C@H](C)CCCCCCCCC(=O)N[C@H]1C[C@@H](O)[C@@H](NCCN)NC(=O)[C@@H]2[C@@H](O)CCN2C(=O)[C@H]([C@H](O)CCN)NC(=O)[C@H]([C@H](O)[C@@H](O)c2ccc(O)cc2)NC(=O)[C@@H]2C[C@@H](O)CN2C(=O)[C@H]([C@@H](C)O)NC1=O [caspofungin, 1-[(4R,5S)-5[(2-aminoethyl)amino]-N^2-(10,12-dimethyl-1-oxotetradecyl)-4-hydroxy-L-ornithine]-5-[(3R)-3-hydroxy-L-ornithine]pneumocandin B0] | no zones of clearing | – | – | – | – | – | – | – | – |
| ALWKNMLKGIGKLAGK [DsS3(1-16), dermaseptin S3(1-16)] | no zones of clearing visible | complete abolition of yeast growth | Evident zones of clearing | – | – | – | – | – | – |
| GIGKFLHSAKKFGKAFVGEIMNS [Magainin 2, magainin 2] | minimal effect on yeast growth | complete abolition of yeast growth | very clear zones of clearing | 0.376 | 0.278 | 0.095 | 0.144 | 0.087 | 0.135 |
| CC[C@H](C)[C@H](NC(=O)[C@H](CCSC)NC(=O)[C@H](C)NC(=O)[C@@H]1CCCN1C(=O)[C@@H](NC(=O)[C@@H](NC(=O)[C@H](CCCCN)NC(=O)[C@@H](NC(=O)[C@H](CC(C)C)NC(=O)CNC(=O)CNC(=O)[C@H](CC(C)C)NC(=O)[C@@H](N)Cc1ccccc1)[C@@H](C)CC)[C@@H](C)CC)C(C)C)C(=O)N[C@H]1CSSC[C@@H](C(=O)O)NC(=O)[C@H](CCCCN)NC(=O)[C@H](CCCCN)NC(=O)[C@H]([C@@H](C)O)NC(=O)[C@H](C(C)C)NC(=O)[C@H](C)NC1=O [Ranalexin, ranalexin] (HELM PEPTIDE1{F.L.G.G.L.I.K.I.V.P.A.M.I.C.A.V.T.K.K.C}$PEPTIDE1,PEPTIDE1,14:R3-20:R3$$$V2.0; N-terminus and C-terminus assumed; bridges inferred) | minimal effect on yeast growth | complete abolition of yeast growth | very clear zones of clearing | – | – | – | – | – | – |
| Colistin sulfate | – | – | – | – | – | 0.230 | 0.249 | – | – |
| Polymyxin B | – | – | – | – | – | 0.590 | 0.310 | – | – |
